No end group written: not given here. mPEG 5000 = methoxy-PEG, average 5000 Da, coupled via mPEG-NHS
Columns and labels:
[1] = system: porcine blood containing sodium citrate; assay: bench top test: solution added to citrated porcine blood in glass vials; settings: 100 μL of 0.5 mM solution added to 100 μL citrated porcine blood; for precipitation of blood: after 2 hrs
Procedure: In a bench top experiment, pegylated SEQ ID NO: 1 in normal saline solution, non-pegylated SEQ ID NO: 1 in normal saline solution, and control solution of normal saline were tested to evaluate interaction with blood. Samples were prepared by adding 100 μL of pegylated SEQ ID NO: 1 in normal saline solution (0.5 mM), SEQ ID NO: 1 in normal saline solution (0.5 mM), and normal saline to separate glass vials containing 100 μL of porcine blood containing sodium citrate (0.105M). […] Thus the pegylated SEQ ID NO: 1 and non-pegylated SEQ ID NO: 1 was shown as promoting rapid blood coagulation.

[2] = system: porcine spleen biopsy punch model; assay: porcine spleen biopsy punch model, time to hemostasis; format: in vivo; settings: for hemostatic performance vs Surgiflo with normal saline: ORC powder scaffold, FIG. 5, N=4; for time to hemostasis vs thrombin: FIG. 2, N=3; for time to hemostasis vs Surgiflo with saline and with PEG2000 (5 mM): FIG. 3, N=3; for hemostatic efficacy vs Surgiflo with thrombin: 0.05-5 mM; for hemostatic efficacy (time to hemostasis): pegylated (PEG2000) 8 amino acid peptides in mixture with Surgiflo, FIG. 5
Procedure: The data was collected using in vivo porcine spleen biopsy punch model [6 mm wide×3 mm deep], initial tamponade time: 30 s; observation time: 30 s; N=3.
In vivo hemostatic activity study was performed using the porcine spleen biopsy punch model, with the punched wound opening 6 mm wide×3 mm deep made on the spleen and the test article applied to a freshly created wound site followed by an occlusive digital pressure (tamponade). Pressure was initially applied for 30 second and was timed using an electronic timer. Following the 30 seconds tamponade, digital pressure was discontinued; the gauze pad on the article was immediately removed. A 30-second hemostasis evaluation period was performed. If free flow bleeding was not observed within 30 seconds, the time to hemostasis was noted, in a minutes seconds format, and testing was concluded for that article. If free flow bleeding was observed, pressure and gauze were reapplied for additional 30 seconds tamponade and observation periods until hemostasis was achieved or until the testing period reached ten minutes. Hemostasis was determined by the cessation of free flow bleeding in less than ten minutes. Gauze pad was used as a negative control.
The data was collected using porcine spleen biopsy punch model [6 mm wide×3 mm deep], initial tamponade time: 30 s; observation time: 30 s; N=3.
The data was collected using porcine spleen biopsy punch model [6 mm wide×3 mm […]], initial tamponade time: 30 s; observation time: 30 s; N=3.
The inventors have tested the following ORC-based compositions: • mixtures of ORC with pegylated SEQ ID NO: 1 at 5 mM concentration (designated on the chart as ORC/PEG2000-RK-8) • mixtures of ORC with SEQ ID NO: 1 at 5 mM concentration (designated on the chart as ORC/RK-8) • mixtures of ORC with normal saline The data was collected using porcine spleen biopsy punch model [6 mm wide×3 mm […]], initial tamponade time: 30 s; observation time: 30 s; N=4.
The data was collected using porcine spleen biopsy punch model [6 mm wide×3 mm deep], initial tamponade time: 30 s; observation time: 30 s.

fresh porcine blood = assay: bench top test: treated Monocryl pad with fresh porcine blood; settings: 100 μL of 0.5 mM on 0.025 g Monocryl pad, 150 μL fresh porcine blood, 2 minutes, room temperature
Procedure: In a bench top experiment, a synthetic porous pad was treated with pegylated SEQ ID NO: 1 in saline solution or with control solution of saline to evaluate interaction with blood. Samples were prepared by adding 100 μL of pegylated SEQ ID NO: 1 in normal saline solution (0.5 mM) or 200 μL of normal saline solution to 0.025 g Monocryl (poliglecaprone 25) pad. The impregnated Monocryl* (poliglecaprone 25) pads were then air-dried for 2 hrs following by an 1-hr vacuum drying process.
150 μL of fresh porcine blood was then added to each pad separately, and allowed it sit at room temperature for 2 minutes. The pads were then transferred to a Petri dish containing 20 mL of saline solution, observing non-coagulated blood diffusing out from the pads. […] Thus the pegylated SEQ ID NO: 1 was shown as promoting rapid blood coagulation.

[3] = system: clopidogrel and acetylsalicylic acid treated porcine spleen biopsy punch model; assay: clopidogrel and acetylsalicylic acid treated porcine spleen biopsy punch model (platelet inactivated); format: in vivo; settings: mixture with Surgiflo, 0.5 mM PEG2000-RK8 in saline, FIG. 8
Procedure: The data was collected using a clopidogrel and acetylsalicylic acid treated porcine spleen biopsy punch model (6 mm wide×3 mm deep, tamponade time: 30 sec; observation time: 30 sec; the following oral dosages were applied to a 4-month-old female porcine (weight: 66.1 Kg): • 2 days prior to the lab: 300 mg of Plavix and 325 mg of aspirin. • 1 day prior to the lab: 75 mg of Plavix and 325 mg of aspirin. • The day for the lab: 75 mg of Plavix and 325 mg of aspirin before the surgery.

[4] = system: Heparinized Porcine spleen biopsy punch model; assay: Heparinized porcine spleen biopsy punch model, time to hemostasis; format: in vivo; settings: mixture with Surgiflo; for hemostatic effect in heparinized blood: 2 mL of 5 mM in saline (thrombin: EVITHROM), ACT above 300 seconds
From the text: The model was Heparinized Porcine spleen biopsy punch model: 6 mm wide×3 mm deep, tamponade time: 30 sec; observation time: 30 sec; activated clotting time (ACT) was maintained above 300 seconds by infusing additional 2000 IU heparin solution if needed. 9975 IU of heparin solution was initially applied to a 39.1 Kg porcine.

washed human platelets = washed human platelets from different donors; cited from earlier work
[5] = mixture with Surgiflo, 5 mM, FIG. 6
[6] = mixture with Surgiflo, FIG. 4, N=3

Row | Substance | clouding of blood [1] | precipitation of blood [1] | hemostatic performance vs Surgiflo with normal saline ([2]; 5 mM) | time to hemostasis vs Surgiflo with saline and with PEG2000 (5 mM) ([2]; mixture with Surgiflo, 5 mM) | effectiveness as hemostatic agent (time to hemostasis) [2, 5] | hemostatic efficacy vs Surgiflo with thrombin [2, 6] | hemostatic effect in heparinized blood ([4]; FIG. 7) | hemostatic efficacy (time to hemostasis) ([2]; 5 mM) | also measured
1 | pegylated SEQ ID NO: 1: SEQ ID NO: 1 with mPEG (average 2000 Da) conjugated onto the N-terminus via mPEG-NHS ({mPEG 2000 Da}-RFYVVMWK) | instantly observed | complete precipitation of blood | not suitable | much faster time to hemostasis | performed as well as thrombin | better or similar hemostatic efficacy | some hemostatic effect | – | hemostatic testing ([2]; Pluronic acid F127 scaffold, 5 mM, FIG. 6): failed in hemostatic testing; time to hemostasis vs thrombin ([2]; mixture with Surgiflo, 0.05 mM to 5 mM): comparable to thrombin; time to hemostasis ([2]; mixture with Surgiflo, 0.05 mM, FIG. 4, N=3): particularly fast time to hemostasis; time to hemostasis vs thrombin ([2]; mixture with Surgiflo, 0.1 mM): possibly better time to hemostasis than Thrombin; hemostatic efficacy vs SEQ ID NO: 1 and Thrombin ([2]; mixtures with Surgiflo, FIG. 4, further analysis): better hemostatic efficacy than SEQ ID NO: 1 and Thrombin; coagulated blood trapped in treated pad (fresh porcine blood): significant amount of coagulated blood; hemostatic efficacy vs Surgiflo/Thrombin [3]: working as well as Surgiflo/Thrombin; time to hemostasis ([4]; 2 mL of 5 mM in saline, heparinized blood, FIG. 7): 6.8 min
2 | Arg-Phe-Tyr-Val-Val-Met-Trp-Lys (RFYVVMWK) [SEQ ID NO: 1] | instantly observed | complete precipitation of blood | not suitable | much faster time to hemostasis | performed as well as thrombin | hemostatic efficacy comparable to mixtures of Surgiflo™ with thrombin | failed as hemostat in heparinized blood | – | concentrations that induce activation and aggregation of platelets (washed human platelets): 5 to 25 mM
3 | PEG5000-SEQ ID NO: 1: SEQ ID NO: 1 with mPEG 5000 conjugated onto the N-terminus via mPEG-NHS ({mPEG 5000}-RFYVVMWK) | – | – | – | – | – | – | significant hemostatic efficacy | – | hemostatic efficacy vs thrombin, non-pegylated SEQ ID NO: 1 and other controls ([4]; heparinized blood, 5 mM): superior hemostatic efficacy
4 | thrombin | – | – | – | – | – | – | failed as hemostat in heparinized blood | – | –
5 | SEQ ID NO: 7: PEG2000-conjugated peptide KYFLLQFR (Lys-Tyr-Phe-Leu-Leu-Gln-Phe-Arg) (PEG2000-KYFLLQFR) | – | – | – | – | – | – | – | somewhat longer time to hemostasis, comparable to non-pegylated SEQ ID NO: 1 | –
6 | SEQ ID NO: 21: PEG2000-conjugated random sequence 8 amino acid peptide KVYRWFMV (PEG2000-KVYRWFMV) [reference compound] | – | – | – | – | – | – | – | longer time to hemostasis, comparable to SF/saline mixture | –

Reference: patent publication US9717820B2, “Procoagulant peptides and their derivatives and uses therefor” (Ethicon, Inc., priority 2011, dated 2017)
